Read-outs that look alike come from different tables or passages of the source.
Experiments:
[1] = test system: leptin; details: transgenic mice; cited from earlier work
[2] = test system: full thickness wounds; details: mice, about 6 mm full thickness wounds, topical 20% lotion, 100 μl twice every day for 14 days, vs lotion without ester
Procedure: Mice were inflicted with full thickness wounds of about 6 mm in diameter, under anesthesia (sodium phenobarbital). They then received topical application of a 20% nicotinate ester lotion, every day, for 14 days. The dosing was 100 μl for each application, with two applications every day. As a control, the lotion without the ester was used. Wound diameter was measured every day.

[3] = test system: leptin; details: male BALB/C mice, 4 ml/kg/mouse, vs vehicle
Procedure: The experiments described in example 2 were continued, in the experiment described in this example. Specifically, male BALB/C mice were shaved, from the scapulae to tail bases. The subject animals then received topical application of the lauryl nicotinate ester lotion, described in example 2, supra, or myristyl nicotinate ester lotion, in varying concentrations. Controls received vehicle only. The lotion was applied at a dose of 4 ml/kg/mouse.
Serum leptin levels were measured, as described, supra.

[4] = test system: leptin; details: female apoB/CETP mice
Procedure: Leptin levels in plasma were determined using a commercially available murine leptin radioimmunoassay. The RIA was carried out on fasting (16 h) blood samples obtained from the retroorbital plexus. The blood samples were collected and centrifuged at 2000×g for 15 minutes to secure plasma.

[5] = test system: Human adipocytes; details: 0.1 mM niacin, 24 hours, vs cultures without niacin
Procedure: Human adipocytes were obtained in accordance with standard methods. In brief, preadipocytes were collected from subcutaneous adipose tissue, following collagenase treatment. The preadipocytes were plated, and allowed to differentiate for 3 weeks, to form adipocytes.
The adipocytes were then incubated, in 0.6 ml of DMEM/F-10 medium, to which 2% bovine serum albumin was added.
After 24 hours, the culture medium was analyzed for leptin, using a commercially available ELISA kit.

Cc1cnc(C(=O)O)c[n+]1[O-] [Acipimox]
plasma leptin levels [1]: increase plasma leptin levels

CCCCCCCCCCCCOC(=O)c1cccnc1 [lauryl nicotinate ester]
reduction of wound thickness [2]: 43%
increase in serum leptin levels ([3]; topical 10% lotion): 45%
amount of circulating leptin (plasma) ([4]; topical, 200 mg of 10% (wt/wt) lotion daily for 13 weeks, compared with oral niacin): surpassed it in terms of the amount of circulating leptin

CCCCCCCCCCCCCCOC(=O)c1cccnc1 [myristyl nicotinate ester]
increase in serum leptin levels ([3]; topical 2% formulation): 57%
increase in serum leptin levels ([3]; topical 5% formulation): 77%

O=C(O)c1cccnc1 [niacin, reference compound]
increase in leptin production [5]: 62%
amount of circulating leptin (plasma) ([4]; oral, sodium salt 0.75% in drinking water, approx. 1400 mg/kg, fasting (16 h) blood): did increase the amount of circulating leptin

— patent US6750234B2, “Methods for increasing leptin levels using nicotinic acid compounds” (University of Kentucky Research Foundation, priority 2001, dated 2004)
